# Experimental data as given in US20070197471A1, “Treatment of degenerative cartilage conditions in a mammal with Glycosidasc Inhibitors” (Optimer Pharmaceuticals, Inc., priority 2004, published 2007).
# Tests used:
# [1] = tested on: rabbit knee after ACL transection; experiment: ACL transection (ACLT) osteoarthritis model in the rabbit knee, continuous intra-articular infusion; type: in vivo; settings: 8 weeks after ACLT; for chondro-degenerative pathology to the knee joint: 30 mM via Alzet pump 2.5 μl/hour intra-articular, vs saline-treated animals
# Protocol: The model used in this study is the transection of the anterior cruciate ligament (ACL) in the rabbit knee. ACL transection (ACLT) causes joint instability and subsequent development of degradative and osteoarthritis-like changes.
# Female New Zealand White rabbits, 3.0-3.5 kg, were used and were randomly allocated into groups of 8 rabbits. Group A was the saline-treated control group; Group B was treated with 30 mM of the hexosaminidase inhibitor (2R,3R,4R,5R)-N-methyl-(2-acetamidomethyl-3,4-dihydroxy-5-hydroxymethyl)-pyrrolidine, which is also known as OPT-66. All the compounds were delivered by a 2ml Alzet osmotic pump (Alzet 2ML4, Alza, USA). The delivery rate from the pump was 2.5 μl/hour. All rabbits received ACLT surgery on the right knee.
# All rabbits were anesthetized by an intramuscular injection of ketamine (35 mg/kg) and acepromazine (2.5 mg/kg). Knees were shaved and disinfected with Antibex (Vetoquinol S.A.) solution. A medial parapatellar incision was made on the skin and a medial arthrotomy was performed. The patella was dislocated laterally and the knee was placed in full flexion. The ACL was visualized and transected with a #15 blade. Complete transection was confirmed by a manual anterior drawer test. The joint was irrigated with sterile saline then closed. Before the closure of knee joint, an Alzet pump prefilled with compounds (either with saline or with the hexosaminidase inhibitor (2R,3R,4R,5R)-N-methyl-(2-acetamidomethyl-3,4-dihydroxy-5-hydroxymethyl)-pyrrolidine, also known as OPT-66, was implanted subcutaneously in the lower right abdomen of rabbits. The pump was connected by polyethylene tubing (ID: 0.58 mm), which was inserted into the right knee joint with its tip resting in the synovial space. The joint capsule was closed with a running suture and the tubing connecting the pump was also fixed into the tissue. The skin was closed with interrupted sutures. The Alzet pumps were replaced with fresh units at the end of the fourth week after the operation.
# The animals were sacrificed eight (8) weeks after ACLT. The gross morphological changes of both knees, including joint swelling and joint fluid, were evaluated.
# The grading of the joint swelling is as following: 0 (normal); 1 (mild), inflammation and/or proliferation of the joint capsule; 2 (moderate), thickening of joint capsule and/or inflammation of the synovium; 3 (severe) abundant inflammation of the synovium, swelling of the menisci or ligaments (anterior or posterior cruciate ligaments).
# [2] = tested on: IL-1β-infused rabbit knee joint (tibial plateau cartilage); experiment: IL-1β-induced sGAG loss in rabbit knee cartilage, continuous intra-articular infusion; type: in vivo
# Protocol: Female New Zealand White rabbits, 3.0-3.5 kg, were used and were randomly allocated into groups of 8 rabbits. Under aseptic conditions, 2 ml Alzet osmotic pumps (delivery flow rate: 10 μl/h, (Alzet 2ML1, Alza, USA)) were filled with IL-1β (1000 U/ml; R&D Systems, USA). Separate 2 ml Alzet pumps were filled with 30 mM of the hexosaminidase inhibitor (2R,3R,4R,5R)-N-methyl-(2-acetamidomethyl-3,4dihydroxy-5-hydroxymethyl)-pyrrolidine, also known as OPT-66, or with saline. The Alzet pumps were implanted subcutaneously in the lower abdomen of rabbits, and were connected by a polyethylene tubing (ID: 0.025 in) threaded subcutaneously to the left knee joint with their tips resting in the synovial space. The untreated contralateral knees of all animals served as negative controls. IL-1β and (2R,3R,4R,5R)-N-methyl-(2-acetamidomethyl-3,4-diydroxy-5-hydroxymethyl)-pyrrolidine were infused intra-articularly for 7 days. Immediately before surgery, and for 3 consecutive days thereafter, Marbocyl, 6 mg/kg/day, is administered (i.m.) to prevent infection. Animals were harvested on day 7. […]
# Blyscan dye (Biocolor, USA) was added to each tube and vortexed. […] The absorbance of the sample was then observed at 656 nm using a spectrophotometer. […] The absorbance of the blank was subtracted from each sample. Results are expressed as micrograms of sGAG recovered per milligram wet weight of cartilage tissue.
# [3] = target: hexosaminidase; settings: read-out: Ki against hexosaminidase; cited from earlier work
# [4] = tested on: cultured chondrocytes; settings: cited from earlier work
compound,measurement,setting,value
"CC(=O)NCC1C(O)[C@H](O)C(CO)N1C (stereo partly drawn) [OPT-66, (2R,3R,4R,5R)-N-methyl-(2-acetamidomethyl-3,4-dihydroxy-5-hydroxymethyl)-pyrrolidine]",chondro-degenerative pathology to the knee joint,[1],consistently less chondro-degenerative pathology
same,chondro-degenerative pathology to the knee joint,[1]; listed as specific hexosaminidase inhibitor,chondroprotective benefit
same,severity of femur lesion scores,"[1]; 30 mM via Alzet pump, vs saline-treated animals (FIG. 1)",statistically significant decrease
same,severity of tibia lesion scores,"[1]; 30 mM via Alzet pump, vs saline-treated animals (FIG. 2)",statistically significant decrease
same,joint swelling grading,"[1]; 30 mM via Alzet pump, vs saline-treated animals (FIG. 3)",trend towards decreased joint-swelling
same,synovial (joint) fluid grading,"[1]; 30 mM via Alzet pump, vs saline-treated animals (FIG. 4)",normal levels of fluid in the knee joint
same,amount of recoverable sGAG per wet weight of left tibial plateau cartilage,[2]; IL-1β 1000 U/ml plus 30 mM inhibitor infused intra-articularly for 7 days (FIG. 5),approximately 41 μg/mg
same,increase of recoverable sGAG over saline-treated knees,[2]; IL-1β plus 30 mM inhibitor infused intra-articularly for 7 days,24%
same,Ki,[3],24 nM
same,cytokine-induced loss of GAGs,[4],preventing cytokine-induced loss of GAGs
